# From PubChem BioAssay (NCI)
#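 1) Cells in 96-well plates. 2) Compound, 48 h, 5 concentrations. 3) Linear interpolation between surrounding doses. 4) Unreached endpoint = highest concentration. Abbreviation: GI50, concentration required for 50% inhibition of growth. TGI marks complete inhibition of growth.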
# Assays:
# Test in all cases: DTP human tumour cell line panel, 48 h
# [1] = system: SK-MEL-5 melanoma
# [2] = system: T-47D breast
# [3] = system: NCI/ADR-RES ovarian
# [4] = system: MDA-MB-231 breast
# [5] = system: NCI-H23 lung
# [6] = system: SF-268 CNS
# [7] = system: 786-0 renal
# [8] = system: ACHN renal
# [9] = system: IGROV1 ovarian
# [10] = system: CCRF-CEM leukemia
# [11] = system: HL-60(TB) leukemia
# [12] = system: SF-539 CNS
# [13] = system: SK-MEL-2 melanoma
# [14] = system: HOP-92 NSCLC
# [15] = system: SK-OV-3 ovarian
# [16] = system: HT29 colon
# [17] = system: SF-295 CNS
# [18] = system: OVCAR-5 ovarian
# [19] = system: UO-31 renal
# [20] = system: HS 578T breast
# [21] = system: PC-3 prostate
# [22] = system: BT-549 breast
# [23] = system: DU-145 prostate
# [24] = system: TK-10 renal
# [25] = system: A549 NSCLC
# [26] = system: A498 renal
# [27] = system: OVCAR-8 ovarian
# [28] = system: SK-MEL-28 melanoma
# [29] = system: LOX IMVI melanoma
# [30] = system: HCT-116 colon
# [31] = system: NCI-H460 lung
# [32] = system: MCF7 breast
# [33] = system: HCT-15 colon
# [34] = system: MOLT-4 leukemia
# [35] = system: KM12 colon
# [36] = system: CAKI-1 renal
# [37] = system: SW-620 colon
# [38] = system: UACC-62 melanoma
# [39] = system: RPMI-8226 leukemia
# [40] = system: NCI-H226 lung
# [41] = system: K-562 leukemia
# [42] = system: SR leukemia
# [43] = system: UACC-257 melanoma
# [44] = system: OVCAR-4 ovarian
# [45] = system: SN12C renal
# [46] = system: EKVX NSCLC
# [47] = system: RXF 393 renal
# [48] = system: U251 CNS
# [49] = system: SNB-19 CNS
# [50] = system: NCI-H522 lung
# [51] = system: COLO 205 colon
# [52] = system: HOP-62 NSCLC
# [53] = system: M14 melanoma
# [54] = system: MDA-MB-435
# [55] = system: HCC-2998 colon
smiles,measurement,setting,value
COc1ccc(C(=O)c2c(N)c(C#N)cn2-c2cccc(OC)c2)cc1,GI50,[1],3.19 µM
same,TGI,[1],23.2 µM
same,GI50,[2],3.72 µM
same,TGI,[2],> 100 µM
same,GI50,[3],2350 nM
same,TGI,[3],> 100 µM
same,GI50,[4],7.8 µM
same,TGI,[4],> 100 µM
same,GI50,[5],5.61 µM
same,TGI,[5],> 100 µM
same,GI50,[6],5.65 µM
same,TGI,[6],> 100 µM
same,GI50,[7],4.64 µM
same,TGI,[7],> 100 µM
same,GI50,[8],6.52 µM
same,TGI,[8],> 100 µM
same,GI50,[9],5 µM
same,TGI,[9],> 100 µM
same,GI50,[10],2680 nM
same,TGI,[10],9.83 µM
same,GI50,[11],2010 nM
same,TGI,[11],4.91 µM
same,GI50,[12],2410 nM
same,TGI,[12],8.52 µM
same,GI50,[13],4.58 µM
same,TGI,[13],> 100 µM
same,GI50,[14],9.53 µM
same,TGI,[14],> 100 µM
same,GI50,[15],4.09 µM
same,TGI,[15],> 100 µM
same,GI50,[16],2640 nM
same,TGI,[16],20.2 µM
same,GI50,[17],2900 nM
same,TGI,[17],> 100 µM
same,GI50,[18],7.36 µM
same,TGI,[18],> 100 µM
same,GI50,[19],5.42 µM
same,TGI,[19],> 100 µM
same,GI50,[20],2420 nM
same,TGI,[20],8.66 µM
same,GI50,[21],3.75 µM
same,TGI,[21],> 100 µM
same,GI50,[22],4.41 µM
same,TGI,[22],> 100 µM
same,GI50,[23],4.7 µM
same,TGI,[23],> 100 µM
same,GI50,[24],6.14 µM
same,TGI,[24],> 100 µM
same,GI50,[25],5.84 µM
same,TGI,[25],> 100 µM
same,GI50,[26],2730 nM
same,TGI,[26],7.8 µM
same,GI50,[27],5.3 µM
same,TGI,[27],> 100 µM
same,GI50,[28],49.8 µM
same,TGI,[28],> 100 µM
same,GI50,[29],4.6 µM
same,TGI,[29],> 100 µM
same,GI50,[30],3.5 µM
same,TGI,[30],> 100 µM
same,GI50,[31],3.41 µM
same,TGI,[31],> 100 µM
same,GI50,[32],3.07 µM
same,TGI,[32],> 100 µM
same,GI50,[33],2490 nM
same,TGI,[33],> 100 µM
same,GI50,[34],3.65 µM
same,TGI,[34],17.9 µM
same,GI50,[35],4.17 µM
same,TGI,[35],> 100 µM
same,GI50,[36],3.2 µM
same,TGI,[36],> 100 µM
same,GI50,[37],2850 nM
same,TGI,[37],> 100 µM
same,GI50,[38],3.22 µM
same,TGI,[38],> 100 µM
same,GI50,[39],2940 nM
same,TGI,[39],15.7 µM
same,GI50,[40],4.5 µM
same,TGI,[40],> 100 µM
same,GI50,[41],707 nM
same,TGI,[41],8.57 µM
same,GI50,[42],775 nM
same,TGI,[42],14.4 µM
same,GI50,[43],9.48 µM
same,TGI,[43],> 100 µM
same,GI50,[44],18 µM
same,TGI,[44],> 100 µM
same,GI50,[45],5.64 µM
same,TGI,[45],> 100 µM
same,GI50,[46],4.68 µM
same,TGI,[46],> 100 µM
same,GI50,[47],2050 nM
same,TGI,[47],6.1 µM
same,GI50,[48],3.45 µM
same,TGI,[48],> 100 µM
same,GI50,[49],3.92 µM
same,TGI,[49],> 100 µM
same,GI50,[50],1990 nM
same,TGI,[50],7.51 µM
same,GI50,[51],3.01 µM
same,TGI,[51],23 µM
same,GI50,[52],4.12 µM
same,TGI,[52],> 100 µM
same,GI50,[53],2510 nM
same,TGI,[53],> 100 µM
same,GI50,[54],788 nM
same,TGI,[54],4.49 µM
same,GI50,[55],4.98 µM
same,TGI,[55],97.4 µM
